Structures can show the parent of a compound that is named as a salt.
Target: T1, EGFR del746-750 T790M (Homo sapiens, UniProt P00533, DEL746-750/T790M)
T1 construct: purchased Carna Biosciences 08-528
Assay: EGFR del746-750 T790M biochemical assay (Caliper mobility shift)
Conditions: 5 μM ATP, 30 min, room temperature; apparent Ki (Morrison) converted by Cheng-Prusoff, Km of ATP 2.1 μM; read-out: EGFR(T790M/d746-750) Ki

T1 sequence (P00533 with tags, fused parts or gaps DEL746-750/T790M limits assumed): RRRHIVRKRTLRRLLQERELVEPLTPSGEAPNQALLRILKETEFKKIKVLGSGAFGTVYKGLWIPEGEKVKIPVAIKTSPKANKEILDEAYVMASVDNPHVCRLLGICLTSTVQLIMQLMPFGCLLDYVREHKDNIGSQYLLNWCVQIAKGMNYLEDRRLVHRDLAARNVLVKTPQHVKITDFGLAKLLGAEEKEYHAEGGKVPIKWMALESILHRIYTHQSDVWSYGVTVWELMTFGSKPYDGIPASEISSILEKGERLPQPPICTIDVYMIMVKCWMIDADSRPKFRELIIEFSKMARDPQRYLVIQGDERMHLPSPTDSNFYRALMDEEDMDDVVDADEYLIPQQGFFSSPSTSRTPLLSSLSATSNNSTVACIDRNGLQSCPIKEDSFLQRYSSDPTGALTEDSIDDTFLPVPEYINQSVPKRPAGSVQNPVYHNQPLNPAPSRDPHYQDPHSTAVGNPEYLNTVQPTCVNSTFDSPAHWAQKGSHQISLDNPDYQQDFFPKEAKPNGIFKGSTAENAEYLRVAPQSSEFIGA

Compound	Ki [nM]
COc1nc2cnc(Nc3ccnc(N4CCC(OC)CC4)n3)cc2n1C(C)C [Example 11, (1-Isopropyl-2-methoxy-1H-imidazo[4,5-c]pyridin-6-yl)-[2-(4-methoxypiperidin-1-yl)pyrimidin-4-yl]amine]	98.4
CC(C)n1cnc2cnc(Nc3ccnc(N4CCc5[nH]ncc5C4)n3)cc21 [Example 12, (1-Isopropyl-1H-imidazo[4,5-c]pyridin-6-yl)-[2-(1,4,6,7-tetrahydropyrazolo[4,3-c]pyridin-5-yl)pyrimidin-4-yl]amine]	19.2
Cc1nc2cnc(Nc3ccnc(N4CCc5[nH]ncc5C4)n3)cc2n1C(C)C [Example 46, N-(2-(6,7-Dihydro-1H-pyrazolo[4,3-c]pyridin-5(4H)-yl)pyrimidin-4-yl)-1-isopropyl-2-methyl-1H-imidazo[4,5-c]pyridin-6-amine]	8.2
COC1CCN(c2nccc(Nc3cc4c(cn3)c(C(=O)NCCn3ccnc3)cn4C(C)C)n2)CC1 [Example 63, N-(2-(1H-Imidazol-1-yl)ethyl)-1-isopropyl-6-(2-(4-methoxypiperidin-1-yl)pyrimidin-4-ylamino)-1H-pyrrolo[3,2-c]pyridine-3-carboxamide]	10.1
COC1CCN(c2nccc(Nc3cc4c(cn3)c(-c3cc[nH]n3)cn4C(C)C)n2)CC1 [Example 64]	1.2
CC(C)n1cnc2cnc(Nc3ccnc(N4CCCC(C(N)=O)C4)n3)cc21 (centres unmarked) [Example 66, 1-(4-(1-isopropyl-1H-imidazo[4,5-c]pyridin-6-ylamino)pyrimidin-2-yl)piperidine-3-carboxamide]	138
CC(C)n1cnc2cnc(Nc3ccnc(NCC(C)(C)C(N)=O)n3)cc21 [Example 85, 3-(4-(1-isopropyl-1H-imidazo[4,5-c]pyridin-6-ylamino)pyrimidin-2-ylamino)-2,2-dimethylpropanamide]	20.8
Cc1nc2cnc(Nc3ccnc(-c4cnn(S(C)(=O)=O)c4)n3)cc2n1C(C)C [Example 91, 1-isopropyl-2-methyl-N-(2-(1-(methylsulfonyl)-1H-pyrazol-4-yl)pyrimidin-4-yl)-1H-imidazo[4,5-c]pyridin-6-amine]	3.5
CC(C)n1cnc2cnc(Nc3ccnc(-c4cnn(S(=O)(=O)C5CC5)c4)n3)cc21 [Example 97, N-(2-(1-(cyclopropylsulfonyl)-1H-pyrazol-4-yl)pyrimidin-4-yl)-1-isopropyl-1H-imidazo[4,5-c]pyridin-6-amine]	1.9
Cc1nc2cnc(Nc3ccnc(N4Cc5cn[nH]c5C(C)(C)C4)n3)cc2n1C(C)C [Example 111, N-(2-(7,7-dimethyl-6,7-dihydro-1H-pyrazolo[4,3-c]pyridin-5(4H)-yl)pyrimidin-4-yl)-1-isopropyl-2-methyl-1H-imidazo[4,5-c]pyridin-6-amine]	18.9
COC1CCN(c2nccc(Nc3cc4c(cn3)c(C(=O)NC3CCN(C)CC3)cn4C(C)C)n2)CC1 [Example 114, 1-isopropyl-6-((2-(4-methoxypiperidin-1-yl)pyrimidin-4-yl)amino)-N-(1-methylpiperidin-4-yl)-1H-pyrrolo[3,2-c]pyridine-3-carboxamide]	2.1
COC1CCN(c2nccc(Nc3cc4c(cn3)c(C(=O)NC(C)C)cn4C(C)C)n2)CC1 [Example 120, N,1-diisopropyl-6-((2-(4-methoxypiperidin-1-yl)pyrimidin-4-yl)amino)-1H-pyrrolo[3,2-c]pyridine-3-carboxamide]	10.2
COC1CCN(c2nccc(Nc3cc4c(cn3)c(C(=O)NCCO)cn4C(C)C)n2)CC1 [Example 121, N-(2-hydroxyethyl)-1-isopropyl-6-((2-(4-methoxypiperidin-1-yl)pyrimidin-4-yl)amino)-1H-pyrrolo[3,2-c]pyridine-3-carboxamide]	24.4
CCN1CCN(C(=O)c2cn(C(C)C)c3cc(Nc4ccnc(N5CCC(OC)CC5)n4)ncc23)CC1 [Example 122, (4-ethylpiperazin-1-yl)(1-isopropyl-6-((2-(4-methoxypiperidin-1-yl)pyrimidin-4-yl)amino)-1H-pyrrolo[3,2-c]pyridin-3-yl)methanone]	100
CC(C)n1cnc2cnc(Nc3ccnc(N4CCC5(CCCO5)CC4)n3)cc21 [Example 141, (1-Isopropyl-1H-imidazo[4,5-c]pyridin-6-yl)-[2-(1-oxa-8-azaspiro[4.5]dec-8-yl)pyrimidin-4-yl]amine formate salt]	55.5
COC1CCN(c2nccc(Nc3cc4c(cn3)nc(C)n4C(C)(C)C)n2)CC1 [Example 163, (1-tert-butyl-2-methyl-1H-imidazo[4,5-c]pyridin-6-yl)-[2-(4-methoxypiperidin-1-yl)pyrimidin-4-yl]amine]	14.9

Compound	Ki [nM]
CC(C)n1cnc2cnc(Nc3ccnc(N4CC5CC4CC5F)n3)cc21 (centres unmarked) [Example 191]	54.7
Cc1cn(CCO)nc1-c1cn(C(C)C)c2cc(Nc3ccnc(-c4cnn(S(=O)(=O)C5CC5)c4)n3)ncc12 [Example 253, 2-(3-(6-(2-(1-(Cyclopropylsulfonyl)-1H-pyrazol-4-yl)pyrimidin-4-ylamino)-1-isopropyl-1H-pyrrolo[3,2-c]pyridin-3-yl)-4-methyl-1H-pyrazol-1-yl)ethanol]	1.82
Cc1nc2cnc(Nc3ccnc(-c4cnn(S(=O)(=O)C5CCNC5)c4)n3)cc2n1C(C)C (centres unmarked) [Example 258, 1-Isopropyl-2-methyl-N-(2-(1-(pyrrolidin-3-ylsulfonyl)-1H-pyrazol-4-yl)pyrimidin-4-yl)-1H-imidazo[4,5-c]pyridin-6-amine]	4.25
CCCC(C)n1c(CO)nc2cnc(Nc3ccnc(-c4cnn(S(=O)(=O)C5CC5)c4)n3)cc21 (centres unmarked) [Example 265, (6-(2-(1-(Cyclopropylsulfonyl)-1H-pyrazol-4-yl)pyrimidin-4-ylamino)-1-(pentan-2-yl)-1H-imidazo[4,5-c]pyridin-2-yl)methanol]	5.63
COC1CCN(c2nccc(Nc3cc4c(cn3)nc(C)n4C(C)C3CC3)n2)CC1 (centres unmarked) [Example 268, [1-(1-Cyclopropylethyl)-2-methyl-1H-imidazo[4,5-c]pyridin-6-yl]-[2-(4-methoxypiperidin-1-yl)pyrimidin-4-yl]amine]	6.88
CC(C)n1c(CO)nc2cnc(Nc3ccnc(-c4cnn(S(=O)(=O)C5CC5)c4)n3)cc21 [Example 272, {6-[2-(1-Cyclopropanesulfonyl-1H-pyrazol-4-yl)pyrimidin-4-ylamino]-1-isopropyl-1H-imidazo[4,5-c]pyridin-2-yl}methanol]	2.12
CO[C@H]1[C@@H]2CC[C@H]1CN(c1nccc(Nc3cc4c(cn3)nc(CO)n4C(C)C)n1)C2 [Example 273, (1-Isopropyl-6-((2-((1R,5R,8r)-8-methoxy-3-azabicyclo[3.2.1]octan-3-yl)pyrimidin-4-yl)amino)-1H-imidazo[4,5-c]pyridin-2-yl)methanol]	23.7
COCc1nc2cnc(Nc3ccnc(-c4cnn(S(=O)(=O)C5CC5)c4)n3)cc2n1C(C)C [Example 279, [2-(1-Cyclopropanesulfonyl-1H-pyrazol-4-yl)-pyrimidin-4-yl]-(1-isopropyl-2-methoxymethyl-1H-imidazo[4,5-c]pyridin-6-yl)amine]	6.87
CC[C@@H](C)n1c([C@@H](C)O)nc2cnc(Nc3ccnc(-c4cnn(S(=O)(=O)CC)c4)n3)cc21 [Example 281, (R)-1-{1-((R)-sec-Butyl)-6-[2-(1-ethanesulfonyl-1H-pyrazol-4-yl)-pyrimidin-4-ylamino]-1H-imidazo[4,5-c]pyridin-2-yl}ethanol]	2.37
CO[C@H]1CCN(c2nccc(Nc3cc4c(cn3)nc([C@@H](C)O)n4[C@@H](C)C(F)(F)F)n2)C[C@H]1F [Example 288, (R)-1-[6-[2-((3R,4S)-3-Fluoro-4-methoxypiperidin-1-yl)-pyrimidin-4-ylamino]-1-((S)-2,2,2-trifluoro-1-methylethyl)-1H-imidazo[4,5-c]pyridin-2-yl]ethanol]	4
C[C@H](n1c([C@@H](C)O)nc2cnc(Nc3ccnc(N4CC[C@H](O)[C@H](F)C4)n3)cc21)C(F)(F)F [Example 289, (3R,4S)-3-Fluoro-1-{4-[2-((R)-1-hydroxyethyl)-1-((S)-2,2,2-trifluoro-1-methylethyl)-1H-imidazo[4,5-c]pyridin-6-ylamino]pyrimidin-2-yl}-piperidin-4-ol]	3.35
CO[C@@H]1CCN(c2nccc(Nc3cc4c(cn3)nc([C@@H](C)O)n4[C@@H](C)C(F)(F)F)n2)C[C@@H]1F [Example 290, (R)-1-[6-[2-((3S,4R)-3-Fluoro-4-methoxypiperidin-1-yl)-pyrimidin-4-ylamino]-1-((S)-2,2,2-trifluoro-1-methylethyl)-1H-imidazo[4,5-c]pyridin-2-yl]ethanol]	4.65
C[C@H](n1c([C@@H](C)O)nc2cnc(Nc3ccnc(N4CC[C@@H](O)[C@@H](F)C4)n3)cc21)C(F)(F)F [Example 291, (3S,4R)-3-Fluoro-1-{4-[2-((R)-1-hydroxyethyl)-1-((S)-2,2,2-trifluoro-1-methylethyl)-1H-imidazo[4,5-c]pyridin-6-ylamino]pyrimidin-2-yl}-piperidin-4-ol]	3.59
Cc1nc2cnc(Nc3ccnc(-c4cnc(N(C)C)s4)n3)cc2n1C(C)C [Example 317, [2-(2-Dimethylaminothiazol-5-yl)pyrimidin-4-yl]-(1-isopropyl-2-methyl-1H-imidazo[4,5-c]pyridin-6-yl)amine]	2.97
CC(C)n1cc(-c2cnn(CC(N)=O)c2)c2cnc(Nc3ccnc(-c4cnn(S(=O)(=O)C5CC5)c4)n3)cc21 [Example 331, 2-(4-(6-((2-(1-(Cyclopropylsulfonyl)-1H-pyrazol-4-yl)pyrimidin-4-yl)amino)-1-isopropyl-1H-pyrrolo[3,2-c]pyridin-3-yl)-1H-pyrazol-1-yl)acetamide]	2.83
Cc1nc2cnc(Nc3ccnc(-n4cnc(S(C)(=O)=O)c4)n3)cc2n1C(C)C [Example 337, 1-Isopropyl-2-methyl-N-(2-(4-(methylsulfonyl)-1H-imidazol-1-yl)pyrimidin-4-yl)-1H-imidazo[4,5-c]pyridin-6-amine]	524

From patent US9890152B2 (Genentech, Inc., priority 2012, dated 2018)
